Patent publication US10253081B2, “Glucagon analogues” (Zealand Pharma A/S, priority 2012, dated 2019)
*1 amine or outer side, *2 acyl side, *3 side chain or, on linkers, in order; H or OH if unused. Where a SMILES comes first, the peptide text is derived from it. Side-chain parts run from the residue outwards. The star is where a group is joined. γGlu = O=C(O)[C@H](CCC(=O)[*:2])N[*:1]; Palmitoyl = CCCCCCCCCCCCCCCC(=O)*

Assays:
[1] = molecular target: T1, endogenous glucagon receptor (Rattus norvegicus, UniProt P30082); assay: Agonistic activity on endogenous glucagon receptor (glycogen synthesis rate in primary rat hepatocytes); format: cell-based; conditions: inhibition of glycogen synthesis rate, 3 hours, read-out: EC50 GLP-1R Rat hepat.
T1 construct: Agonistic activity of the test compounds on endogenous glucagon receptor; endogenous in cells; host or cells: primary rat hepatocytes
T1 sequence (P30082 27-485): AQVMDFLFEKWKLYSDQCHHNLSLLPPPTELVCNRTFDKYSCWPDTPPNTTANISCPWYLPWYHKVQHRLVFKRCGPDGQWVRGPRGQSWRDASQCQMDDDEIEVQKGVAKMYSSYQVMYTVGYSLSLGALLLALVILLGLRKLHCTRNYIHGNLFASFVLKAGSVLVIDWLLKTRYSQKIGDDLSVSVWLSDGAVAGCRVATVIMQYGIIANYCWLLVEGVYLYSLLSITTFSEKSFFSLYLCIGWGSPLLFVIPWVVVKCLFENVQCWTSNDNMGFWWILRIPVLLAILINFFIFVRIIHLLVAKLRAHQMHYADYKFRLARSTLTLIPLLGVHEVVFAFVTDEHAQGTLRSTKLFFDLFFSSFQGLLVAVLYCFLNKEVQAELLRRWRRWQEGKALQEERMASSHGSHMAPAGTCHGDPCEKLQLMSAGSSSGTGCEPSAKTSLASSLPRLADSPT
Outline: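 Primary rat hepatocytes (40,000 cells/well, cultured 24 h) incubated 3 h with compound in KRBH buffer with 0.1% BSA, 22.5 mM glucose and D-[U14C]glucose. 14C incorporated into precipitated glycogen counted, background-subtracted and expressed as % of 0.1% DMSO vehicle (100% CTL). pEC50 from cpm versus log concentration; agonism lowers glycogen synthesis.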

[2] = Oral glucose tolerance test (OGTT); format: in vivo, C57BL/6J mice; conditions: blood glucose AUC 0-120 min, 10 nmol/kg s.c. 4 h before oral glucose 2 g/kg
Experimental: Male C57BL/6J mice were fasted for 10 h before they received an oral glucose bolus of 2 g/kg body weight. Peptides were dissolved in saline buffered with 25 mM phosphate and administered at a dose of 10 nmol/kg body weight by subcutaneous injection 4 h before the glucose bolus. Control animals received a vehicle injection only. Group size was 7 animals per group. A pre-dose and a pre-glucose (0 min) blood sample were obtained by tail bleeding and blood glucose was measured with a glucometer. Additional samples of tail blood for measuring blood glucose were obtained 15 min, 30 min, 60 min, 90 min and 120 min after the glucose challenge. […] Calculation of AUC was done by the trapezoidal rule without baseline correction. The data are presented as mean±S.E.M. Statistical comparisons were conducted by one-way ANOVA followed by Tukey's post test. Vehicle alone was used as a control.

[3] = molecular target: T2, endogenous GLP-1 receptors (Mus musculus, UniProt O35659); assay: Agonistic activity on endogenous GLP-1 receptor (cAMP, murine insulinoma cell line); format: cell-based; conditions: intracellular cAMP, 15 minutes at 26° C.; read-out: EC50 GLP-1R (murine insulinoma cells)
T2 construct: Agonistic activity of the test compounds on endogenous GLP-1 receptors; endogenous in cells
T2 sequence (O35659 22-463): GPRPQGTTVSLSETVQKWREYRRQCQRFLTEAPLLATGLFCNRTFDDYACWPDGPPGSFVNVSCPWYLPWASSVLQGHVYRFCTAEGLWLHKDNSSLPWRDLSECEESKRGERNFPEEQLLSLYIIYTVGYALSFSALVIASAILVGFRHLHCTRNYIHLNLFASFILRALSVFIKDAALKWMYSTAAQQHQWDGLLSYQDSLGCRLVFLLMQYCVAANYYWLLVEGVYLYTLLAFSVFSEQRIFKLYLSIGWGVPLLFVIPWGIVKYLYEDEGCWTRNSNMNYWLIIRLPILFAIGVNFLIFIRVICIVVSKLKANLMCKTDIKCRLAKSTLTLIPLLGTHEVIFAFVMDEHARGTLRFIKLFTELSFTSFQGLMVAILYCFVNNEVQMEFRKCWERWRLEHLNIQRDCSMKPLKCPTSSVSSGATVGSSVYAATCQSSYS
Outline: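 Murine insulinoma cells were exposed 15 min at 26° C in KRBH with 0.1% DMSO to compound or GLP-1 ([…]), then cAMP was measured by AlphaScreen against a standard curve, in quadruplicate. pEC50 came from curve fits; % CTL was normalised to the maximal GLP-1 cAMP response.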

SMILES | EC50 [1] | AUC (% Ctrl) [2] | EC50 [3]
CCCCCCCCCCCCCCCC(=O)N[C@@H](CCC(=O)NCCCC[C@H](NC(=O)[C@H](CO)NC(=O)[C@H](CC(=O)O)NC(=O)[C@H](CC(C)C)NC(=O)[C@H](Cc1ccc(O)cc1)NC(=O)[C@H](CCCCN)NC(=O)[C@H](CO)NC(=O)[C@H](Cc1ccc(O)cc1)NC(=O)[C@H](CC(=O)O)NC(=O)[C@H](CO)NC(=O)[C@@H](NC(=O)[C@H](Cc1ccccc1)NC(=O)[C@@H](NC(=O)CNC(=O)[C@H](CCC(N)=O)NC(=O)[C@H](CO)NC(=O)[C@@H](N)Cc1c[nH]cn1)[C@@H](C)O)[C@@H](C)O)C(=O)N[C@@H](C)C(=O)N[C@@H](C)C(=O)N[C@@H](CCC(=O)O)C(=O)N[C@@H](CC(=O)O)C(=O)N[C@@H](Cc1ccccc1)C(=O)N[C@H](C(=O)N[C@@H](CCC(=O)O)C(=O)N[C@@H](Cc1c[nH]c2ccccc12)C(=O)N[C@@H](CC(C)C)C(=O)N[C@@H](CC(C)C)C(=O)N[C@@H](CCCNC(=N)N)C(=O)N[C@@H](C)C(N)=O)C(C)C)C(=O)O [Compound 7, H-HSQGTFTSDYSKYLDS-K(Hexadecanoyl-isoGlu)-AAEDFVEWLLRA-NH2] (H-HSQGTFTSDYSKYLDSK([γGlu-Palmitoyl])AAEDFVEWLLRA-NH2) | 1.92 nM | 57 % Ctrl | 0.84 nM
CCCCCCCCCCCCCCCC(=O)N[C@@H](CCC(=O)NCCCC[C@H](NC(=O)[C@H](CO)NC(=O)[C@H](CC(=O)O)NC(=O)[C@H](CC(C)C)NC(=O)[C@H](Cc1ccc(O)cc1)NC(=O)[C@H](CCCCN)NC(=O)[C@H](CO)NC(=O)[C@H](Cc1ccc(O)cc1)NC(=O)[C@H](CC(=O)O)NC(=O)[C@H](CO)NC(=O)[C@@H](NC(=O)[C@H](Cc1ccccc1)NC(=O)[C@@H](NC(=O)CNC(=O)[C@H](CCC(N)=O)NC(=O)[C@H](CO)NC(=O)[C@@H](N)Cc1c[nH]cn1)[C@@H](C)O)[C@@H](C)O)C(=O)N[C@@H](C)C(=O)N[C@@H](C)C(=O)N[C@@H](Cc1c[nH]cn1)C(=O)N[C@@H](CC(=O)O)C(=O)N[C@@H](Cc1ccccc1)C(=O)N[C@H](C(=O)N[C@@H](CCC(=O)O)C(=O)N[C@@H](Cc1c[nH]c2ccccc12)C(=O)N[C@@H](CC(C)C)C(=O)N[C@@H](CC(C)C)C(=O)N[C@@H](CO)C(N)=O)C(C)C)C(=O)O [Compound 8, H-HSQGTFTSDYSKYLDS-K(Hexadecanoyl-isoGlu)-AAHDFVEWLLS-NH2] (H-HSQGTFTSDYSKYLDSK([γGlu-Palmitoyl])AAHDFVEWLLS-NH2) | 1.1 nM | 50 % Ctrl | 0.95 nM
CCCCCCCCCCCCCCCC(=O)N[C@@H](CCC(=O)NCCCC[C@H](NC(=O)[C@H](CO)NC(=O)[C@H](CC(=O)O)NC(=O)[C@H](CC(C)C)NC(=O)[C@H](Cc1ccc(O)cc1)NC(=O)[C@H](CCCCN)NC(=O)[C@H](CO)NC(=O)[C@H](Cc1ccc(O)cc1)NC(=O)[C@H](CC(=O)O)NC(=O)[C@H](CO)NC(=O)[C@@H](NC(=O)[C@H](Cc1ccccc1)NC(=O)[C@@H](NC(=O)CNC(=O)[C@H](CCC(N)=O)NC(=O)[C@H](CO)NC(=O)[C@@H](N)Cc1c[nH]cn1)[C@@H](C)O)[C@@H](C)O)C(=O)N[C@@H](C)C(=O)N[C@@H](C)C(=O)N[C@@H](Cc1c[nH]cn1)C(=O)N[C@@H](CC(=O)O)C(=O)N[C@@H](Cc1ccccc1)C(=O)N[C@H](C(=O)N[C@@H](CCC(=O)O)C(=O)N[C@@H](Cc1c[nH]c2ccccc12)C(=O)N[C@@H](CC(C)C)C(=O)N[C@@H](CC(C)C)C(=O)N[C@@H](CCCNC(=N)N)C(=O)O)C(C)C)C(=O)O [Compound 9, H-HSQGTFTSDYSKYLDS-K(Hexadecanoyl-isoGlu)-AAHDFVEWLLR-OH] (H-HSQGTFTSDYSKYLDSK([γGlu-Palmitoyl])AAHDFVEWLLR-OH) | 0.37 nM | 57 % Ctrl | 1.02 nM
CCCCCCCCCCCCCCCC(=O)N[C@@H](CCC(=O)NCCCC[C@H](NC(=O)[C@H](CCC(=O)O)NC(=O)[C@H](CC(=O)O)NC(=O)[C@H](CC(C)C)NC(=O)[C@H](Cc1ccc(O)cc1)NC(=O)[C@H](CCCCN)NC(=O)[C@H](CO)NC(=O)[C@H](Cc1ccc(O)cc1)NC(=O)[C@H](CC(=O)O)NC(=O)[C@H](CO)NC(=O)[C@@H](NC(=O)[C@H](Cc1ccccc1)NC(=O)[C@@H](NC(=O)CNC(=O)[C@H](CCC(N)=O)NC(=O)[C@H](CO)NC(=O)[C@@H](N)Cc1c[nH]cn1)[C@@H](C)O)[C@@H](C)O)C(=O)N[C@@H](C)C(=O)N[C@@H](C)C(=O)N[C@@H](Cc1c[nH]cn1)C(=O)N[C@@H](CCC(=O)O)C(=O)N[C@@H](Cc1ccccc1)C(=O)N[C@H](C(=O)N[C@@H](CCC(=O)O)C(=O)N[C@@H](Cc1c[nH]c2ccccc12)C(=O)N[C@@H](CC(C)C)C(=O)N[C@@H](CCC(=O)O)C(=O)N[C@@H](CO)C(=O)N[C@@H](C)C(N)=O)C(C)C)C(=O)O [Compound 10, H-HSQGTFTSDYSKYLDE-K(Hexadecanoyl-isoGlu)-AAHEFVEWLESA-NH2] (H-HSQGTFTSDYSKYLDEK([γGlu-Palmitoyl])AAHEFVEWLESA-NH2) | 0.04 nM | 46 % Ctrl | 0.33 nM
CCCCCCCCCCCCCCCC(=O)N[C@@H](CCC(=O)NCCCC[C@H](NC(=O)[C@H](CO)NC(=O)[C@H](CC(=O)O)NC(=O)[C@H](CC(C)C)NC(=O)[C@H](Cc1ccc(O)cc1)NC(=O)[C@H](CCCNC(=N)N)NC(=O)[C@H](CO)NC(=O)[C@H](Cc1ccc(O)cc1)NC(=O)[C@H](CC(=O)O)NC(=O)[C@H](CO)NC(=O)[C@@H](NC(=O)[C@H](Cc1ccccc1)NC(=O)[C@@H](NC(=O)CNC(=O)[C@H](CCC(N)=O)NC(=O)[C@H](CO)NC(=O)[C@@H](N)Cc1c[nH]cn1)[C@@H](C)O)[C@@H](C)O)C(=O)N[C@@H](C)C(=O)N[C@@H](C)C(=O)N[C@@H](Cc1c[nH]cn1)C(=O)N[C@@H](CC(=O)O)C(=O)N[C@@H](Cc1ccccc1)C(=O)N[C@H](C(=O)N[C@@H](CCC(=O)O)C(=O)N[C@@H](Cc1c[nH]c2ccccc12)C(=O)N[C@@H](CC(C)C)C(=O)N[C@@H](CC(C)C)C(=O)N[C@@H](CO)C(=O)N[C@@H](C)C(N)=O)C(C)C)C(=O)O [Compound 12, H-HSQGTFTSDYSRYLDS-K(Hexadecanoyl-isoGlu)-AAHDFVEWLLSA-NH2] (H-HSQGTFTSDYSRYLDSK([γGlu-Palmitoyl])AAHDFVEWLLSA-NH2) | 0.24 nM | 56 % Ctrl | 1.62 nM
CCCCCCCCCCCCCCCC(=O)N[C@@H](CCC(=O)NCCCC[C@H](NC(=O)[C@H](CO)NC(=O)[C@H](CC(=O)O)NC(=O)[C@H](CC(C)C)NC(=O)[C@H](Cc1ccc(O)cc1)NC(=O)[C@H](CCCCN)NC(=O)[C@H](CO)NC(=O)[C@H](Cc1ccc(O)cc1)NC(=O)[C@H](CC(=O)O)NC(=O)[C@H](CO)NC(=O)[C@@H](NC(=O)[C@H](Cc1ccccc1)NC(=O)[C@@H](NC(=O)CNC(=O)[C@H](CCC(N)=O)NC(=O)C(C)(C)NC(=O)[C@@H](N)Cc1c[nH]cn1)[C@@H](C)O)[C@@H](C)O)C(=O)N[C@@H](C)C(=O)N[C@@H](C)C(=O)N[C@@H](Cc1c[nH]cn1)C(=O)N[C@@H](CC(=O)O)C(=O)N[C@@H](Cc1ccccc1)C(=O)N[C@H](C(=O)N[C@@H](CCC(=O)O)C(=O)N[C@@H](Cc1c[nH]c2ccccc12)C(=O)N[C@@H](CC(C)C)C(=O)N[C@@H](CC(C)C)C(=O)N[C@@H](CO)C(=O)N[C@@H](C)C(=O)O)C(C)C)C(=O)O [Compound 13, H-H-Aib-QGTFTSDYSKYLDS-K(Hexadecanoyl-isoGlu)-AAHDFVEWLLSA-OH] | 0.67 nM | 55 % Ctrl | 1.06 nM
